For test [1], the target named is Inosine-5'-monophosphate dehydrogenase (Escherichia coli). Nature of the test: Inhibition of IMPDH (Inosine 5''-monophosphate dehydrogenase)from Escherichia coli B3 cells.
Test [2] deals with Inosine-5'-monophosphate dehydrogenase (Escherichia coli). The description is as above. The source holds these as a separate data set.

Consider `O=P(O)(O)OC[C@H]1OC(n2cnc3c(O)nc(/C=C/F)nc32)[C@H](O)C1O` (single isomer, unassigned), for which, in test [1], the Ki (usually the dissociation constant of the complex between target and ligand, obtained from inhibition or displacement) turned out to be 1.11 µM. Also, in test [2], the K inact was 0.0269 s⁻¹. Compound `O=P(O)(O)OC[C@H]1O[C@@H](n2cnc3c(Cl)ncnc32)[C@H](O)[C@@H]1O` yielded a Ki in test [1] of 62 µM.
